Data: ChEMBL document CHEMBL4507284, “Data for DCP probe BI-1230” (2021)

What was measured:
[1] = biological target: Mitogen-activated protein kinase kinase kinase 11 (Homo sapiens) (UniProt Q16584); details: Compound concentration 1000.0 nM
[2] = tested on: ALK tyrosine kinase receptor (Homo sapiens), Q9UM73 [L1196M]; details: Compound concentration 1000.0 nM
[3] = biological target: Cyclin-dependent kinase-like 2 (Homo sapiens) (UniProt Q92772); details: Compound concentration 1000.0 nM
[4] = biological target: MAP kinase-activated protein kinase 5 (Homo sapiens) (UniProt Q8IW41); details: Compound concentration 1000.0 nM
[5] = biological target: Serine/threonine-protein kinase SIK3 (Homo sapiens) (UniProt Q9Y2K2); details: Compound concentration 1000.0 nM
[6] = biological target: Myosin light chain kinase (Homo sapiens) (UniProt Q32MK0); details: Compound concentration 1000.0 nM
[7] = biological target: Membrane-associated tyrosine- and threonine-specific cdc2-inhibitory kinase (Homo sapiens) (UniProt Q99640); details: Compound concentration 1000.0 nM
Membrane-associated tyrosine- and threonine-specific cdc2-inhibitory kinase (Homo sapiens), sequence (Q99640 whole entry): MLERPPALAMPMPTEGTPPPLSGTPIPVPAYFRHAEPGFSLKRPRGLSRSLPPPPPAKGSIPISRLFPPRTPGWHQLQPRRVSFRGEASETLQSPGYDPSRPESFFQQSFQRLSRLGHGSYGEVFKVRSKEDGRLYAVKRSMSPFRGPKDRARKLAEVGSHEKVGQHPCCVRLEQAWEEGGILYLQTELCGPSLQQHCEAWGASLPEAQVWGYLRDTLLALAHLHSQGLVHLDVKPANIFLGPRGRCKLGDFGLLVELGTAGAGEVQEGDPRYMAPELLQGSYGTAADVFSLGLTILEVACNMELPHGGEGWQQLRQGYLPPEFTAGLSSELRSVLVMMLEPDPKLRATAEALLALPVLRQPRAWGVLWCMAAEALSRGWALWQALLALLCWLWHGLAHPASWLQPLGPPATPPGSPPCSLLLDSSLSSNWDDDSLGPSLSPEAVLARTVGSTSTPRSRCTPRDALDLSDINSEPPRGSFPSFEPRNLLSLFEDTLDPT

[8] = biological target: Serine/threonine-protein kinase RIO3 (Homo sapiens) (UniProt O14730); details: Compound concentration 1000.0 nM
[9] = biological target: Insulin receptor (Homo sapiens) (UniProt P06213); details: Compound concentration 1000.0 nM
[10] = biological target: Phosphatidylinositol 4,5-bisphosphate 3-kinase catalytic subunit alpha isoform (Homo sapiens) (UniProt P42336); details: Compound concentration 1000.0 nM
[11] = biological target: Tyrosine-protein kinase Fyn (Homo sapiens) (UniProt P06241); details: Compound concentration 1000.0 nM
[12] = biological target: Serine/threonine-protein kinase Nek6 (Homo sapiens) (UniProt Q9HC98); details: Compound concentration 1000.0 nM
Serine/threonine-protein kinase Nek6 (Homo sapiens), sequence (Q9HC98 whole entry): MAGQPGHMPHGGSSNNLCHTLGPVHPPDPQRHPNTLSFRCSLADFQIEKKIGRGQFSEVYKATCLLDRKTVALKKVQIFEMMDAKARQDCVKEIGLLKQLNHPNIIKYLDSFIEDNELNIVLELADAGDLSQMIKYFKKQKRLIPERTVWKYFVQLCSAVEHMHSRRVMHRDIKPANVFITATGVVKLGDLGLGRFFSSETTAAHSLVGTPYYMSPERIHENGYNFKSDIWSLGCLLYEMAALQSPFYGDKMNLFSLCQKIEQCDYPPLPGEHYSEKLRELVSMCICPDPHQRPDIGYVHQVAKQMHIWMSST

[13] = biological target: Calcium/calmodulin-dependent protein kinase type II subunit alpha (Homo sapiens) (UniProt Q9UQM7); details: Compound concentration 1000.0 nM
[14] = biological target: Phosphatidylinositol 4,5-bisphosphate 3-kinase catalytic subunit delta isoform (Homo sapiens) (UniProt O00329); details: Compound concentration 1000.0 nM
[15] = biological target: Ephrin type-A receptor 7 (Homo sapiens) (UniProt Q15375); details: Compound concentration 1000.0 nM
[16] = biological target: Citron Rho-interacting kinase (Homo sapiens) (UniProt O14578); details: Compound concentration 1000.0 nM
[17] = biological target: Activin receptor type-1-like (Homo sapiens) (UniProt P37023); details: Compound concentration 1000.0 nM
[18] = biological target: Serine/threonine-protein kinase 32C (Homo sapiens) (UniProt Q86UX6); details: Compound concentration 1000.0 nM
[19] = biological target: Mitogen-activated protein kinase kinase kinase kinase 2 (Homo sapiens) (UniProt Q12851); details: Compound concentration 1000.0 nM
[20] = biological target: Beta-3 adrenergic receptor (Homo sapiens, UniProt P13945); details: Compound concentration 10.0 uM
[21] = biological target: Receptor-interacting serine/threonine-protein kinase 2 (Homo sapiens) (UniProt O43353); details: Compound concentration 1000.0 nM
[22] = biological target: 5-hydroxytryptamine receptor 1D (Homo sapiens) (UniProt P28221); details: Compound concentration 10.0 uM
[23] = tested on: Proto-oncogene tyrosine-protein kinase receptor Ret (Homo sapiens), P07949 [V804M]; details: Compound concentration 1000.0 nM
Proto-oncogene tyrosine-protein kinase receptor Ret (Homo sapiens), P07949 [V804M], sequence (P07949 whole entry V804M): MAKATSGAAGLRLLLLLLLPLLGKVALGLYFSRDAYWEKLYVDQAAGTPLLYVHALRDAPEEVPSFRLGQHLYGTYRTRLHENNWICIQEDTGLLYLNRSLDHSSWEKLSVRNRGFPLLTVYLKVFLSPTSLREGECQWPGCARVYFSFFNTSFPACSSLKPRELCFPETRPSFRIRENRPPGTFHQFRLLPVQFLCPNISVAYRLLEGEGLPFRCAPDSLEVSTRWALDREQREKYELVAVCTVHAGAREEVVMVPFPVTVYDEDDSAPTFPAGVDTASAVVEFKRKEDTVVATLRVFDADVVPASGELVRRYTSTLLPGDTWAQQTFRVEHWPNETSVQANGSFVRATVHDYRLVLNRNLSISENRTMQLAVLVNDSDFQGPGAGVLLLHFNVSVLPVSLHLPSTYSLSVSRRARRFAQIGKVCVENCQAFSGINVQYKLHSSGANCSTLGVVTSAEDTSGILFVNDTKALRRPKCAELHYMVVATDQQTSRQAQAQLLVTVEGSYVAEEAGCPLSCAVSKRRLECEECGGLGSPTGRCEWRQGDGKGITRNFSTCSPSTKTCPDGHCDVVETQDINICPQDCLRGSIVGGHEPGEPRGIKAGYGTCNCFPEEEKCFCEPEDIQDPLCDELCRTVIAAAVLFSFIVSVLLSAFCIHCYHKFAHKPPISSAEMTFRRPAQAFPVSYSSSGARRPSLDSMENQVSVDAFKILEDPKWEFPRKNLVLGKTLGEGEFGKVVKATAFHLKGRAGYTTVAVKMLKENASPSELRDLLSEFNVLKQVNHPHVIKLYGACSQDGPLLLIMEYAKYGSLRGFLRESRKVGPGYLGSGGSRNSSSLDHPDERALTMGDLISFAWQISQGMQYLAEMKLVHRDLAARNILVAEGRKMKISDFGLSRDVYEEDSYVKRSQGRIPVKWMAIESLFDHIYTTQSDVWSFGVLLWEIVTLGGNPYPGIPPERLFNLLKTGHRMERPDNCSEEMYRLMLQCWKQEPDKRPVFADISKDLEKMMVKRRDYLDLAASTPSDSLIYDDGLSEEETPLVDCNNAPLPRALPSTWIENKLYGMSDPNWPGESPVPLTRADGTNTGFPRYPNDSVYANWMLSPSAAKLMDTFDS

[24] = biological target: Calcium/calmodulin-dependent protein kinase type 1D (Homo sapiens) (UniProt Q8IU85); details: Compound concentration 1000.0 nM
Calcium/calmodulin-dependent protein kinase type 1D (Homo sapiens), sequence (Q8IU85 whole entry, looked up): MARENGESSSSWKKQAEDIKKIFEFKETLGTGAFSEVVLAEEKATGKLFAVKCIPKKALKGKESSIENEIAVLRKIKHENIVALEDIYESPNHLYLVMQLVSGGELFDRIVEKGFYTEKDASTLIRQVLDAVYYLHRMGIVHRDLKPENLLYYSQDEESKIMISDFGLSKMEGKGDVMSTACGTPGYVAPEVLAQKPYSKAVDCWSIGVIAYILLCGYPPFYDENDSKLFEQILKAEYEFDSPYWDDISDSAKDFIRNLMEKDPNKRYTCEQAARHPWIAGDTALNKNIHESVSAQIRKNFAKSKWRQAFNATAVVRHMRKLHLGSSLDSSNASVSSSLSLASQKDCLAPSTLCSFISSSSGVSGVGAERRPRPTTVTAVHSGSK

[25] = biological target: Tyrosine-protein kinase JAK1 (Homo sapiens) (UniProt P23458); details: Compound concentration 1000.0 nM
Tyrosine-protein kinase JAK1 (Homo sapiens), sequence (P23458 whole entry): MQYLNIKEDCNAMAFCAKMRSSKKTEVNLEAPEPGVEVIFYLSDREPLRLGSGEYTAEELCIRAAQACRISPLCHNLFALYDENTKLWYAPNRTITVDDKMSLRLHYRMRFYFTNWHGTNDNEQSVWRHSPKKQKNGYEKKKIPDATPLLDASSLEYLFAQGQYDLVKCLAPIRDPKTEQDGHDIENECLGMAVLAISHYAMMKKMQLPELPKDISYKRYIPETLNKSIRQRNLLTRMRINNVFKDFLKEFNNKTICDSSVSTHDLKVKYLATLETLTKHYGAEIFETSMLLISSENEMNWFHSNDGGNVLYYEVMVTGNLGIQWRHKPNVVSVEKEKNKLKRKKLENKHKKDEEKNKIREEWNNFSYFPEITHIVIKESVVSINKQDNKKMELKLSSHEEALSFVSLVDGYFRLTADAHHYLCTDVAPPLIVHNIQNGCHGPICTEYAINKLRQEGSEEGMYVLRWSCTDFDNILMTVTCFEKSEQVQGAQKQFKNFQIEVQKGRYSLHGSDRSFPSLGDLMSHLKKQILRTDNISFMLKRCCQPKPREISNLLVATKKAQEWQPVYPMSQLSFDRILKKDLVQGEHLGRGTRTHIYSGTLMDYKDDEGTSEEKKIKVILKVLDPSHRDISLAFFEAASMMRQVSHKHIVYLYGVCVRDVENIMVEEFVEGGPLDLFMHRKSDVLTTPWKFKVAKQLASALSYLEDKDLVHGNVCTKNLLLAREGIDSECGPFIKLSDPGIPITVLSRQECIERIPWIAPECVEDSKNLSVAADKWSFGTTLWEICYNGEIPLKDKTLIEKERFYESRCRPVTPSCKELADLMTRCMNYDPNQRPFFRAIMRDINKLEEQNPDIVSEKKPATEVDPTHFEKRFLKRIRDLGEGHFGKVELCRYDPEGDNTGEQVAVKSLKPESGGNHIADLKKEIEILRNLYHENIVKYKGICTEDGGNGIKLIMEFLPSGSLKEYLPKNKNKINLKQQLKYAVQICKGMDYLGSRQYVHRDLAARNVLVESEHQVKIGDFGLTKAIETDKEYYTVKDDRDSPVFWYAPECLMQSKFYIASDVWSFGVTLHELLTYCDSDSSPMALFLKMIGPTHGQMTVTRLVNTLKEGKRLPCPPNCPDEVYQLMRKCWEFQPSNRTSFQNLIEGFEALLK

[26] = biological target: 5-hydroxytryptamine receptor 1E (Homo sapiens) (UniProt P28566); details: Compound concentration 10.0 uM
[27] = biological target: Dual specificity tyrosine-phosphorylation-regulated kinase 2 (Homo sapiens) (UniProt Q92630); details: Compound concentration 1000.0 nM
[28] = biological target: Bone morphogenetic protein receptor type-1A (Homo sapiens) (UniProt P36894); details: Compound concentration 1000.0 nM
Bone morphogenetic protein receptor type-1A (Homo sapiens), sequence (P36894 whole entry): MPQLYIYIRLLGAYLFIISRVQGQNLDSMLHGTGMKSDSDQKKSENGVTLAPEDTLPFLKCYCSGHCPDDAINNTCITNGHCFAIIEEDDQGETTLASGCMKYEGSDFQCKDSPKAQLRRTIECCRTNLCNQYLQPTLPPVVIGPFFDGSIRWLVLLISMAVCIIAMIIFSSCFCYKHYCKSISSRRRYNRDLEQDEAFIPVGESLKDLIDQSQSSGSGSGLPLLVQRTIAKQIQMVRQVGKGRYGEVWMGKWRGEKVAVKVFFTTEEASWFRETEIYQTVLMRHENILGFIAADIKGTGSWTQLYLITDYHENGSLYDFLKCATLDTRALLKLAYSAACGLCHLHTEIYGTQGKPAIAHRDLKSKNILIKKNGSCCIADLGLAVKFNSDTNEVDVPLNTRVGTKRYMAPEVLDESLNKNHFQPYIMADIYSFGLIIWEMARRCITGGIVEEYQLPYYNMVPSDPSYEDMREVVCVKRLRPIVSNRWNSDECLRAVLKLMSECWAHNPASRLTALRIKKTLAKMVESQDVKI

[29] = biological target: MAP kinase-interacting serine/threonine-protein kinase 1 (Homo sapiens) (UniProt Q9BUB5); details: Compound concentration 1000.0 nM
[30] = biological target: Cyclin-dependent kinase 2 homolog (Plasmodium falciparum (isolate 3D7)) (UniProt P61075); details: Compound concentration 1000.0 nM
[31] = biological target: Casein kinase I isoform delta (Homo sapiens) (UniProt P48730); details: Compound concentration 1000.0 nM
Casein kinase I isoform delta (Homo sapiens), sequence (P48730 whole entry, looked up, canonical isoform): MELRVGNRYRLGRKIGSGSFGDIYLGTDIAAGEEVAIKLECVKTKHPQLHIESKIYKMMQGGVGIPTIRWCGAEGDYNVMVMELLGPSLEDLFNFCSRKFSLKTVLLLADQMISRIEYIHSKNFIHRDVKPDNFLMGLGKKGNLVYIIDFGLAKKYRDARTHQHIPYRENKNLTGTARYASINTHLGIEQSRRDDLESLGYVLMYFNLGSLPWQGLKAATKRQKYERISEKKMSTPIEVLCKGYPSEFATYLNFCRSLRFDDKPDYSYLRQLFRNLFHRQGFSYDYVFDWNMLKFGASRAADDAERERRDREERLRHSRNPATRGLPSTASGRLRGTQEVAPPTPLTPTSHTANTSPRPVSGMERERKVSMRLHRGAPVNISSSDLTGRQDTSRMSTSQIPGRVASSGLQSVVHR

[32] = biological target: Serine/threonine-protein kinase PknB (Mycobacterium tuberculosis) (UniProt P9WI81); details: Compound concentration 1000.0 nM
Serine/threonine-protein kinase PknB (Mycobacterium tuberculosis), sequence (P9WI81 whole entry): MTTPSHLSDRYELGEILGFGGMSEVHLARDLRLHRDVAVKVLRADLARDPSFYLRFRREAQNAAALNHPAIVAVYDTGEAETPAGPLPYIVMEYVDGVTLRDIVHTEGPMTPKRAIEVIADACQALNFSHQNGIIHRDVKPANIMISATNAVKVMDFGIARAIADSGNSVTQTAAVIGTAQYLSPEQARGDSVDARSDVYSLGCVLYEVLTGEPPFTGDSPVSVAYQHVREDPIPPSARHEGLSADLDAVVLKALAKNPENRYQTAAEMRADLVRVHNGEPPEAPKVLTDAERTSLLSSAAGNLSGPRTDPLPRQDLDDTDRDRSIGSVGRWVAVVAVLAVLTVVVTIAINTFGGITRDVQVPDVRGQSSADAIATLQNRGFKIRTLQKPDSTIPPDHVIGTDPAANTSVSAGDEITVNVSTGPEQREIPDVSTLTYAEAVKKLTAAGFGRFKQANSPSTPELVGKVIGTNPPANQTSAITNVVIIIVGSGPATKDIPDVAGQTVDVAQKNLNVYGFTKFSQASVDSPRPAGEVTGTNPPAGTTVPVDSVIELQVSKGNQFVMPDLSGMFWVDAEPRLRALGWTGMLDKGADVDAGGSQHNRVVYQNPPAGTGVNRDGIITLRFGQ

[33] = biological target: Activated CDC42 kinase 1 (Homo sapiens) (UniProt Q07912); details: Compound concentration 1000.0 nM
[34] = biological target: Angiopoietin-1 receptor (Homo sapiens) (UniProt Q02763); details: Compound concentration 1000.0 nM
[35] = tested on: Epidermal growth factor receptor (Homo sapiens), P00533 [L858R]; details: Compound concentration 1000.0 nM
[36] = biological target: Serine/threonine-protein kinase DCLK2 (Homo sapiens) (UniProt Q8N568); details: Compound concentration 1000.0 nM
[37] = biological target: cAMP-dependent protein kinase catalytic subunit PRKX (Homo sapiens) (UniProt P51817); details: Compound concentration 1000.0 nM
[38] = tested on: Epidermal growth factor receptor (Homo sapiens), P00533 [G719C]; details: Compound concentration 1000.0 nM
[39] = biological target: Tyrosine-protein kinase Lyn (Homo sapiens) (UniProt P07948); details: Compound concentration 1000.0 nM
[40] = biological target: cGMP-dependent protein kinase 2 (Homo sapiens) (UniProt Q13237); details: Compound concentration 1000.0 nM
[41] = biological target: Mitogen-activated protein kinase kinase kinase kinase 5 (Homo sapiens) (UniProt Q9Y4K4); details: Compound concentration 1000.0 nM
[42] = biological target: RAC-gamma serine/threonine-protein kinase (Homo sapiens) (UniProt Q9Y243); details: Compound concentration 1000.0 nM
[43] = biological target: Protein kinase C eta type (Homo sapiens) (UniProt P24723); details: Compound concentration 1000.0 nM
[44] = biological target: Serine/threonine-protein kinase ULK3 (Homo sapiens) (UniProt Q6PHR2); details: Compound concentration 1000.0 nM
[45] = biological target: Alpha-1A adrenergic receptor (Homo sapiens) (UniProt P35348); details: Compound concentration 10.0 uM

In the case of COc1ccc2c(O[C@@H]3C[C@H]4C(=O)N[C@]5(C(=O)O)CC5/C=C\CCCCC[C@H](NC(=O)OC5CCCC5)C(=O)N4C3)cc(-c3csc(NC(=O)C(C)C)n3)nc2c1C (stereo not given in full) [BI 1230], the residual activity [1] is reported as 100%, the residual activity [2] is reported as 97% and the residual activity [3] is reported as 89%. For the same compound, the residual activity [4] was 88%, the residual activity [5] was 97% and the residual activity [6] was 100%. It also gave a residual activity [7] of 100%, a residual activity [8] of 100% and a residual activity [9] of 94%. The residual activity [10] was 75%, the residual activity [11] was 100% and the residual activity [12] was 98%. It also gave a residual activity [13] of 100%, a residual activity [14] of 100% and a residual activity [15] of 100%. For the same compound, the residual activity [16] was 99%, the residual activity [17] was 97% and the residual activity [18] was 63%. It also gave a residual activity [19] of 100%, an inhibition [20] of 57.4% and a residual activity [21] of 100%. For the same compound, the inhibition [22] was 32.5%, the residual activity [23] was 96% and the residual activity [24] was 100%. It also gave a residual activity [25] of 75%, an inhibition [26] of 14.9% and a residual activity [27] of 77%. The residual activity [28] was 100%, the residual activity [29] was 79% and the residual activity [30] was 83%. It also gave a residual activity [31] of 100%, a residual activity [32] of 94% and a residual activity [33] of 100%. The residual activity [34] was 100%, the residual activity [35] was 100% and the residual activity [36] was 95%. For the same compound, the residual activity [37] was 86%, the residual activity [38] was 76% and the residual activity [39] was 94%. For the same compound, the residual activity [40] was 84%, the residual activity [41] was 100% and the residual activity [42] was 93%. For the same compound, the residual activity [43] was 100%, the residual activity [44] was 93% and the inhibition [45] was 1.41%.
In the case of O=C(N[C@H]1CCCCC/C=C\C2C[C@@]2(C(=O)O)NC(=O)[C@@H]2C[C@@H](Oc3ccncc3)CN2C1=O)OC1CCCC1 (stereo not given in full) [BI 1675], the residual activity [1] is reported as 97%, the residual activity [2] is reported as 100% and the residual activity [3] is reported as 100%. It also gave a residual activity [4] of 96%, a residual activity [5] of 95% and a residual activity [6] of 75%. The residual activity [7] was 97%, the residual activity [8] was 100% and the residual activity [9] was 100%. The residual activity [10] was 98%, the residual activity [11] was 100% and the residual activity [12] was 87%. The residual activity [13] was 95%, the residual activity [14] was 92% and the residual activity [15] was 100%. It also gave a residual activity [16] of 89%, a residual activity [17] of 84% and a residual activity [18] of 100%. The residual activity [19] was 100%, the inhibition [20] was -9.47% and the residual activity [21] was 100%. It also gave an inhibition [22] of 3.22%, a residual activity [23] of 100% and a residual activity [24] of 94%. For the same compound, the residual activity [25] was 89%, the inhibition [26] was 0% and the residual activity [27] was 66%. It also gave a residual activity [28] of 100%, a residual activity [29] of 79% and a residual activity [30] of 78%. The residual activity [31] was 81%, the residual activity [32] was 93% and the residual activity [33] was 100%. It also gave a residual activity [34] of 100%, a residual activity [35] of 96% and a residual activity [36] of 93%. The residual activity [37] was 80%, the residual activity [38] was 59% and the residual activity [39] was 87%. The residual activity [40] was 88%, the residual activity [41] was 100% and the residual activity [42] was 94%. It also gave a residual activity [43] of 91%, a residual activity [44] of 82% and an inhibition [45] of 25.7%.
